According to US8987275B2, “Indazole compounds and their uses” (Dana-Farber Cancer Institute, Inc., priority 2010, dated 2015):

How the values were obtained:
Assay type in all cases: cell-based
Bcr-Abl = target: T1, Bcr-Abl (Homo sapiens, UniProt P00519); assay: IC50 of compounds against kinase target Bcr-Abl (Table I)
T1 construct: BCR (N-terminal fusion partner, p210 form, B2A2 junction); expressed in transfected cells; host or cells: Ba/F3.p210 (or 32D.p210) murine hematopoietic cells; the other entry of the earlier key: BCR (P11274, Breakpoint cluster region protein)
Method: (§1) All compounds are initially dissolved in DMSO to make 10 mM stock solutions, and then are serially diluted to obtain final concentrations for in vitro experiments.
(§2) Ba/F3.p210 cells are obtained by transfecting the IL-3-dependent marine hematopoietic Ba/F3 cell line with a pGD vector containing p210BCR-ABL (B2A2) cDNA (Daley and Baltimore, 1988; Sattler et al., 1996; Okuda et al., 1996). Murine hematopoietic 32D cells are transduced with retrovirus to express p210 Bcr-ABL (32D.p210 cells) (Matulonis et al., 1993); the 32D-T315I cell line is transfected by electroporation with the imatinib resistant BCR-ABL construct (pCI-neo Mammalian Expression Vector; Promega (#E1841) harboring the point mutation T315I (Weisberg et al., 2005). Ba/F3 cells are stably transfected by electroporation with imatinib-resistant BCR-ABL constructs (pCI-neo Mammalian Expression Vector; Promega (#E1841) harboring the point mutations T315I, F317L, F486S, and M351T; transfectants are selected for neomycin resistance and IL-3-independent growth (Weisberg et al., 2005). Ba/F3 cells are stably transfected by electroporation with BCR-ABL point mutants identified in a random mutagenesis screen for BCR-ABL point mutants conferring resistance to nilotinib: Q252H, E292K, Y253C, Y253H, E255K, and V289L (Ray et al., 2007). Ba/F3 cells are made to express Tel-PDGFRβ as described by Golub et al., 1994, and Carroll et al., 1996. Constructs of D842V-PDGFRα and V561D-PDGFRα cDNA cloned into pcDNA3.1 are stably transfected into Ba/F3 cells by electroporation, and cells are selected for neomycin resistance and IL3-independent growth as described by Weisberg et al., 2006.
(§3) All cell lines are cultured with 5% CO2 at 37° C. in RPMI (Mediatech, Inc., Herndon, Va.) with 10% fetal calf serum (FCS) and supplemented with 1% L-glutamine. Parental Ba/F3 cells are similarly cultured with 15% WEHI-conditioned medium as a source of IL-3. Transfected cell lines are cultured in media supplemented with 1 mg/ml G418.

EML4-Alk = target: T2, EML4-Alk (Homo sapiens, UniProt Q9UM73); assay: IC50 of compounds against kinase target EML4-Alk (Table I)
T2 construct: EML4 (N-terminal fusion partner); human EML4 would be Q9HC35; the other entry of the earlier key: EML4 (Q9HC35, Echinoderm microtubule-associated protein-like 4)
Method: as §1, §3

Tel-Alk = target: T3, Tel-Alk (Homo sapiens, UniProt Q9UM73); assay: IC50 of compounds against kinase target Tel-Alk (Table I)
T3 construct: TEL (ETV6); N-terminal fusion partner; human ETV6 would be P41212; the other entry of the earlier key: ETV6 (P41212, Transcription factor ETV6)
Method: as §1, §3

BCR-Abl T315I = target: T4, BCR-Abl T315I (Homo sapiens, UniProt P00519, T315I); assay: IC50 of compounds against kinase target T315I (Table I); conditions: read-out: IC50 T3151
T4 construct: BCR (N-terminal fusion partner of BCR-ABL); human BCR would be P11274; expressed in transfected cells; host or cells: Ba/F3 (or 32D) murine hematopoietic cells transfected with BCR-ABL T315I in pCI-neo; the other entry of the earlier key: BCR (P11274, Breakpoint cluster region protein)
Method: as §1, §2, §3

T3 sequence (Q9UM73 1116-1392 limits assumed): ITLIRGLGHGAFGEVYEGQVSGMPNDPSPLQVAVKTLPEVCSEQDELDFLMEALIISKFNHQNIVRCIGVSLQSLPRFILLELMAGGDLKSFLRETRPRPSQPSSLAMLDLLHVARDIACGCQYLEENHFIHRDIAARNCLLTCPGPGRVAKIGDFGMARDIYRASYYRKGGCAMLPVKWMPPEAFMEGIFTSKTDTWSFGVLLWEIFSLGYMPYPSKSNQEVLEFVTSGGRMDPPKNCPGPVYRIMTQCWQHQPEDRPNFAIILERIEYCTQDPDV
T2 sequence (Q9UM73 1058-1620 limits assumed): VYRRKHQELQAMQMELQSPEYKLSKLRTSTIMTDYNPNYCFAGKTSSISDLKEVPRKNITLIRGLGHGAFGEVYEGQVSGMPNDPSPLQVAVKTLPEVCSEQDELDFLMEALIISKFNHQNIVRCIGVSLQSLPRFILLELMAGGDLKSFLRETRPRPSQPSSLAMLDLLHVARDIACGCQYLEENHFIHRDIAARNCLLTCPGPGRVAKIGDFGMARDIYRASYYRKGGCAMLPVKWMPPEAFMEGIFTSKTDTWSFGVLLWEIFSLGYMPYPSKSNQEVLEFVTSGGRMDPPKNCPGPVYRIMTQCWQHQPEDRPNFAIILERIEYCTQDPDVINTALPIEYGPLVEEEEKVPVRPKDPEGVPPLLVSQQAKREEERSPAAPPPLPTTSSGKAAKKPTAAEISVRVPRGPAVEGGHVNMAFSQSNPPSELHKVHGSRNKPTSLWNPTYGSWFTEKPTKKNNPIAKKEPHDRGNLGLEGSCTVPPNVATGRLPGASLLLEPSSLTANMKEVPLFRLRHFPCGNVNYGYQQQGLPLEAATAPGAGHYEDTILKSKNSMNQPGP

| IC50 (Bcr-Abl) [nM] | IC50 (EML4-Alk) [nM] | IC50 (Tel-Alk) [nM] | IC50 (BCR-Abl T315I) [nM] | SMILES |
| --- | --- | --- | --- | --- |
| > 10000 | > 10000 | > 10000 |  | O=C(Nc1cccc(C(F)(F)F)c1)c1cccc(-c2ccc3c(NC(=O)C4CC4)n[nH]c3c2)c1 [Compound 1] |
| 50 | 4190 | 4480 | 630 | CCN1CCN(Cc2ccc(NC(=O)c3cccc(-c4ccc5c(NC)n[nH]c5c4)c3)cc2C(F)(F)F)CC1 [Compound 2, N-(4-((4-ethylpiperazin-1-yl)methyl)-3-(trifluoromethyl)phenyl)-3-(3-(methylamino)-1H-indazol-6-yl)benzamide] |
| 470 | 1670 | 1070 |  | CCN1CCN(Cc2ccc(NC(=O)c3cccc(-c4ccc5c(NC(=O)c6ccccc6)n[nH]c5c4)c3)cc2C(F)(F)F)CC1 [Compound 3] |
| > 10000 | > 10000 | > 10000 | > 10000 | CCN1CCN(Cc2ccc(NC(=O)c3cccc(-c4ccc5c(NC(=O)C6CC6)n[nH]c5c4)c3)cc2)CC1 [Compound 9] |
| 30 | 1060 | 310 | 500 | CCN1CCN(Cc2ccc(NC(=O)c3ccc(C)c(-c4ccc5c(NC(=O)C6CC6)n[nH]c5c4)c3)cc2C(F)(F)F)CC1 [Compound 13] |
| 1050 | 5600 | 1440 | > 10000 | CCN1CCN(Cc2ccc(NC(=O)c3ccc(C)c(-c4ccc5c(NC(=O)C6CC6)n[nH]c5c4)c3)cc2)CC1 [Compound 14] |
| 780 | > 10000 | > 10000 | 7120 | CCN1CCN(Cc2ccc(NC(=O)c3cccc(-c4ccc5c(N)n[nH]c5c4)c3)cc2C(F)(F)F)CC1 [Compound 17] |
| 650 | 60 | 30 | 340 | CCN1CCN(Cc2ccc(NC(=O)c3cccc(-c4ccc5c(NC(=O)C6CC6)n[nH]c5c4)c3)cc2C(F)(F)F)CC1 [Compound 19] |
| 90 | 400 | 270 | 310 | CCN1CCN(Cc2ccc(C(=O)Nc3cccc(-c4ccc5c(N)n[nH]c5c4)c3)cc2C(F)(F)F)CC1 [Compound 20] |
| 530 | 360 | 320 | 240 | CCN1CCN(Cc2ccc(NC(=O)Nc3cccc(-c4ccc5c(NC(=O)C6CC6)n[nH]c5c4)c3)cc2C(F)(F)F)CC1 [Compound 21] |
| > 10000 | > 10000 | > 10000 | > 10000 | CCN1CCN(Cc2ccc(C(=O)Nc3cccc(-c4ccc5c(NC(=O)C6CC6)n[nH]c5c4)c3)cc2C(F)(F)F)CC1 [Compound 23] |
| 2380 | 2530 | 3750 | 3110 | CCN1CCN(Cc2ccc(NC(=O)c3cccc(Nc4ccc5c(NC(=O)C6CC6)n[nH]c5c4)c3)cc2C(F)(F)F)CC1 [Compound 24] |

Further lines, the compound ahead of its results:

| SMILES | IC50 (Bcr-Abl) [nM] | IC50 (EML4-Alk) [nM] | IC50 (Tel-Alk) [nM] | IC50 (BCR-Abl T315I) [nM] |
| --- | --- | --- | --- | --- |
| Cc1cn(-c2cc(NC(=O)c3cccc(-c4ccc5c(NC(=O)C6CC6)n[nH]c5c4)c3)cc(C(F)(F)F)c2)cn1 [Compound 6] | 3070 | 1340 | 2900 | 310 |
| O=C(NCCN1CCOCC1)c1cccc(-c2ccc3c(NC(=O)C4CC4)n[nH]c3c2)c1 [Compound 7] | > 10000 | > 10000 | > 10000 | > 10000 |
| O=C(Nc1n[nH]c2cc(-c3cccc(C(=O)N4CCC(N5CCCC5)CC4)c3)ccc12)C1CC1 [Compound 8] | > 10000 | > 10000 | > 10000 | > 10000 |
| O=C(NC1CC1)c1cccc(-c2ccc3c(NC(=O)C4CC4)n[nH]c3c2)c1 [Compound 10] | > 10000 | > 10000 | > 10000 | > 10000 |
| CONC(=O)c1cccc(-c2ccc3c(NC(=O)C4CC4)n[nH]c3c2)c1 [Compound 11] | > 10000 | > 10000 | > 10000 | > 10000 |
| CNC(=O)c1cccc(-c2ccc3c(NC(=O)C4CC4)n[nH]c3c2)c1 [Compound 12] | 1900 | 1050 | 720 | 2080 |
| Cc1ccc(C(=O)Nc2cccc(C(F)(F)F)c2)cc1-c1ccc2c(NC(=O)C3CC3)n[nH]c2c1 [Compound 15] | 1190 | 8470 | 1290 | > 10000 |
| Cc1cn(-c2cc(NC(=O)c3ccc(C)c(-c4ccc5c(NC(=O)C6CC6)n[nH]c5c4)c3)cc(C(F)(F)F)c2)cn1 [Compound 16] | 220 | > 10000 | > 10000 | > 10000 |
| CNc1n[nH]c2cc(-c3cccc(C(=O)Nc4cc(-n5cnc(C)c5)cc(C(F)(F)F)c4)c3)ccc12 [Compound 18] | 1570 | > 10000 | > 10000 | 3080 |
| O=C(Nc1cccc(-c2ccc3c(NC(=O)C4CC4)n[nH]c3c2)c1)C1CC1 [Compound 22] | 360 | 500 | 430 | 1270 |
| Cc1ccc(C(=O)Nc2cccc(C(F)(F)F)c2)cc1Nc1ccc2c(NC(=O)C3CC3)n[nH]c2c1 [Compound 25, 3-(3-(cyclopropanecarboxamido)-1H-indazol-6-ylamino)-4-methyl-N-(3-(trifluoro-methyl)phenyl)benzamide] | 7180 | > 10000 | 7180 | > 10000 |
| COc1cc(Nc2ccc3c(NC(=O)C4CC4)n[nH]c3c2)cc(C(=O)Nc2ccc(CN3CCN(C)CC3)c(C(F)(F)F)c2)c1 [Compound 26] | 7080 | > 10000 | 7080 |  |
| CCOC(=O)c1cccc(-c2ccc3c(NC(=O)c4ccc(N5CCN(C)CC5)cc4)n[nH]c3c2)c1 [Compound 27] | 70 | 4220 | 5260 | 1560 |
| CN1CCN(c2ccc(C(=O)Nc3n[nH]c4cc(-c5cccc(C(=O)Nc6cccc(C(F)(F)F)c6)c5)ccc34)cc2)CC1 [Compound 28, 3-(3-(4-(4-methylpiperazin-1-yl)benzamido)-1H-indazol-6-yl)-N-(3-(trifluoromethyl)phenyl)benzamide] | 1440 | > 10000 | > 10000 | > 10000 |
